From the kinase profiling compilation of Christmann-Franck et al. (2016)
Values belong to the compound of their own block, whether it stands above or below them.

Tests used:
Assay in all cases: KINOMEscan competition binding
Details in all cases: compound 10.0 µM
[1] = target: CDK11A (human) (UniProt Q9UQ88)
[2] = target: DDR2 (human) (UniProt Q16832)
[3] = target: CHEK1 (human) (UniProt O14757)
[4] = target: MAPK14 (human) (UniProt Q16539)
[5] = test system: ABL1 (human), P00519 [F317L]
[6] = target: ITK (human) (UniProt Q08881)
[7] = target: CHEK2 (human) (UniProt O96017)
[8] = target: AURKA (human) (UniProt O14965)
[9] = target: CDK5 (human) (UniProt Q00535)
[10] = target: CAMK1 (human) (UniProt Q14012)
[11] = target: ERBB4 (human) (UniProt Q15303)
[12] = target: PDPK1 (human) (UniProt O15530)
[13] = target: TNNI3K (human) (UniProt Q59H18)
[14] = target: BRSK1 (human) (UniProt Q8TDC3)
[15] = test system: EGFR (human), P00533 [L861Q]
[16] = target: EPHA2 (human) (UniProt P29317)
[17] = target: IRAK3 (human) (UniProt Q9Y616)
[18] = target: PAK1 (human) (UniProt Q13153)
[19] = target: MAP2K6 (human) (UniProt P52564)
[20] = target: EPHB3 (human) (UniProt P54753)
[21] = target: ALK (human) (UniProt Q9UM73)
[22] = target: LTK (human) (UniProt P29376)
[23] = target: MAPK10 (human) (UniProt P53779)
[24] = target: PRKCE (human) (UniProt Q02156)
[25] = target: NTRK2 (human) (UniProt Q16620)
[26] = target: PRKCD (human) (UniProt Q05655)
[27] = target: RPS6KA2 KD1 (human) (UniProt Q15349)
[28] = target: FGFR3 (human) (UniProt P22607)
[29] = test system: EGFR (human), P00533 [G719C; 746-750 del]
[30] = target: ABL2 (human) (UniProt P42684)
[31] = target: HCK (human) (UniProt P08631)
[32] = target: FYN (human) (UniProt P06241)
[33] = target: MET (human) (UniProt P08581)
[34] = target: JAK1 JH1 catalytic (human) (UniProt P23458)
[35] = target: EPHA1 (human) (UniProt P21709)
[36] = target: PRKG2 (human) (UniProt Q13237)
[37] = target: WEE1 (human) (UniProt P30291)
[38] = target: PKMYT1 (human) (UniProt Q99640)
[39] = target: FLT4 (human) (UniProt P35916)
[40] = target: LIMK1 (human) (UniProt P53667)
[41] = target: CDK2 (human) (UniProt P24941)
[42] = target: EPHA4 (human) (UniProt P54764)

Sequence of CHEK2 (human) (O96017 whole entry, looked up): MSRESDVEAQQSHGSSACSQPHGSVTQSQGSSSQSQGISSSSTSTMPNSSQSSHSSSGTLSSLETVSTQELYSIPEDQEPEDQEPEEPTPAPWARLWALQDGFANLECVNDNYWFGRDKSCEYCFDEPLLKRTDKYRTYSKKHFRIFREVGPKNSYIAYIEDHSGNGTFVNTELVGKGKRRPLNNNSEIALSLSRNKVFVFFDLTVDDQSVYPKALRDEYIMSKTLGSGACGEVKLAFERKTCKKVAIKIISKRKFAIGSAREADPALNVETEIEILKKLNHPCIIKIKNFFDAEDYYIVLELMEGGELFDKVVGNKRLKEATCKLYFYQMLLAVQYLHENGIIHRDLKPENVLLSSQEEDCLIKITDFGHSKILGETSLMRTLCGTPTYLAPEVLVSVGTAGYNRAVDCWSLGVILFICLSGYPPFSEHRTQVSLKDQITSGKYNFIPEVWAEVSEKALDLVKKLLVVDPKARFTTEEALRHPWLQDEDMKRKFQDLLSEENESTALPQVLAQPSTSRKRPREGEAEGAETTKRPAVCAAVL
Sequence of IRAK3 (human) (Q9Y616 whole entry, looked up): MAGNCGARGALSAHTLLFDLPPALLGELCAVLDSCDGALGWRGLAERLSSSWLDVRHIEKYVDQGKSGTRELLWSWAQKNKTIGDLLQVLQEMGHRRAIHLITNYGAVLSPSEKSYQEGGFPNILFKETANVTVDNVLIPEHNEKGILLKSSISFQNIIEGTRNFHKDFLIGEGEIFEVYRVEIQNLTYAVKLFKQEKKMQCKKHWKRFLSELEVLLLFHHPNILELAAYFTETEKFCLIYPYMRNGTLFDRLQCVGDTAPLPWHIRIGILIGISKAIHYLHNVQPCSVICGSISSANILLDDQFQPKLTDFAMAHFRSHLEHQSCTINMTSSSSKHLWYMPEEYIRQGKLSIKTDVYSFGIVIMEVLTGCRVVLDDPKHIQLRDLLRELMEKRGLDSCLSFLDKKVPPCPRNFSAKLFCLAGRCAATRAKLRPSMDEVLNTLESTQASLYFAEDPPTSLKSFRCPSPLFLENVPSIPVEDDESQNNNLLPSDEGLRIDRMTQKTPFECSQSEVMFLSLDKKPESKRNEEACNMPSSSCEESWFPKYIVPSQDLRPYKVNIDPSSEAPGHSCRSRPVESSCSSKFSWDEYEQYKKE
Sequence of PRKG2 (human) (Q13237 whole entry, looked up): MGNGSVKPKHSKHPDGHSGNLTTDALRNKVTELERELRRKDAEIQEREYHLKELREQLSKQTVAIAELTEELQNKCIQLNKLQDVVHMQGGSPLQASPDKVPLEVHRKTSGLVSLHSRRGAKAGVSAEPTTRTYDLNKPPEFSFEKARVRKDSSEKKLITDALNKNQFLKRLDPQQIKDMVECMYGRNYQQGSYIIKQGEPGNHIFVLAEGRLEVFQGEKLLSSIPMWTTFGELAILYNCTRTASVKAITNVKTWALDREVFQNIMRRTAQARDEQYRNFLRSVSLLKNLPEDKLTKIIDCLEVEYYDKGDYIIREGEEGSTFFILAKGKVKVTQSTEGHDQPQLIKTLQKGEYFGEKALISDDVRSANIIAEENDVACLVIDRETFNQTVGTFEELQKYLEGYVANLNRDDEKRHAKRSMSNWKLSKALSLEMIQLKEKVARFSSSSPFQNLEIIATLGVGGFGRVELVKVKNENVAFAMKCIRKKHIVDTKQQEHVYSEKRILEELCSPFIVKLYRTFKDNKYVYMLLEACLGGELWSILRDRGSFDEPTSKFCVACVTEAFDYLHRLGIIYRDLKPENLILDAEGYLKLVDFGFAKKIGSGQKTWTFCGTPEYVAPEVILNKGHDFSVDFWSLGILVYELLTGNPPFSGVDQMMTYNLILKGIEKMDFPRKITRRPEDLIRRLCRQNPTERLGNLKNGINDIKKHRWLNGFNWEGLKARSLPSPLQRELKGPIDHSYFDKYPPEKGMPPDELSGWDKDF
Sequence of HCK (human) (P08631 whole entry, looked up): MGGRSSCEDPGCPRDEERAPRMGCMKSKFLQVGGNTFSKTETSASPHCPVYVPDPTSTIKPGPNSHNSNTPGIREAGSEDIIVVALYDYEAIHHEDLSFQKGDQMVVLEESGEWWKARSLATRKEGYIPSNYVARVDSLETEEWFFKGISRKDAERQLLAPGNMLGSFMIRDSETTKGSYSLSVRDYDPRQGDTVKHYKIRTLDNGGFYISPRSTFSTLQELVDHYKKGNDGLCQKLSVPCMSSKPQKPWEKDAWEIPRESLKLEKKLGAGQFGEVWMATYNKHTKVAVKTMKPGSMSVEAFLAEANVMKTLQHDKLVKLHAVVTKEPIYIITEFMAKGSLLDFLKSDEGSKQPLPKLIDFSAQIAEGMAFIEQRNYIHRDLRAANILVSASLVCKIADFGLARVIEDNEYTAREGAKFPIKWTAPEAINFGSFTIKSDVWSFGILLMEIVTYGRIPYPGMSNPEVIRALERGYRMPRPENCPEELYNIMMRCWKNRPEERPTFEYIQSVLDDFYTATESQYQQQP
Sequence of PDPK1 (human) (O15530 whole entry, looked up): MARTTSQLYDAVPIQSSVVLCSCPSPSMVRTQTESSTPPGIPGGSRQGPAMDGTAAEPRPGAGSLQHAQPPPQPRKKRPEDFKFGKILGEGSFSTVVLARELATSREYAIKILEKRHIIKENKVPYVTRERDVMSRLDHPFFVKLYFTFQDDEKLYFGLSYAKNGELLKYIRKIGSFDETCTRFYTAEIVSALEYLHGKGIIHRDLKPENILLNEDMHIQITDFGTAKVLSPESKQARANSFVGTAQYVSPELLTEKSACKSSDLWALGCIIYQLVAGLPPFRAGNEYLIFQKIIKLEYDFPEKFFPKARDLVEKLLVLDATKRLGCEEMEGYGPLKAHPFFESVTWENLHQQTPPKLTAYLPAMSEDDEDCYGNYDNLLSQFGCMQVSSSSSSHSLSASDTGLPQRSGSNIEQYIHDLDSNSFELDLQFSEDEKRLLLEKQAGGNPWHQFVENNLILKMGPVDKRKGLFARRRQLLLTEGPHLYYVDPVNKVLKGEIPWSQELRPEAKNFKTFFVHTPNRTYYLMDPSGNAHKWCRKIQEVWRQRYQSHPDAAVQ
Sequence of ITK (human) (Q08881 whole entry, looked up): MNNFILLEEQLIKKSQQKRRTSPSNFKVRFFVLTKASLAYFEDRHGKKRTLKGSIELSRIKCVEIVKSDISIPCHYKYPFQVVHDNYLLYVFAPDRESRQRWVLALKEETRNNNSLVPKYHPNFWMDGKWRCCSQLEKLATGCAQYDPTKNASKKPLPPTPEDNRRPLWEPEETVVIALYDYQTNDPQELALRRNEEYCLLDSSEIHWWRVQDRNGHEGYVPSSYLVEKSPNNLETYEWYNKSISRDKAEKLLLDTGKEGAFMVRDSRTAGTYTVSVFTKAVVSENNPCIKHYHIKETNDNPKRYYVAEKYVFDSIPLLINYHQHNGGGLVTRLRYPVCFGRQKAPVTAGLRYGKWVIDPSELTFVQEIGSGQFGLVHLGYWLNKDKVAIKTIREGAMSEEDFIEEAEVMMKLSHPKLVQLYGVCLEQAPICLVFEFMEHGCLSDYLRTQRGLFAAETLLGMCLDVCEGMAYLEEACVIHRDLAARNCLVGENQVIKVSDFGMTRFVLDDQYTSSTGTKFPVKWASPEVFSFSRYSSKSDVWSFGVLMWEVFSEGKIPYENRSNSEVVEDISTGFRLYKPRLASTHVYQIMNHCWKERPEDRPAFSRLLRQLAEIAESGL
Sequence of DDR2 (human) (Q16832 whole entry, looked up): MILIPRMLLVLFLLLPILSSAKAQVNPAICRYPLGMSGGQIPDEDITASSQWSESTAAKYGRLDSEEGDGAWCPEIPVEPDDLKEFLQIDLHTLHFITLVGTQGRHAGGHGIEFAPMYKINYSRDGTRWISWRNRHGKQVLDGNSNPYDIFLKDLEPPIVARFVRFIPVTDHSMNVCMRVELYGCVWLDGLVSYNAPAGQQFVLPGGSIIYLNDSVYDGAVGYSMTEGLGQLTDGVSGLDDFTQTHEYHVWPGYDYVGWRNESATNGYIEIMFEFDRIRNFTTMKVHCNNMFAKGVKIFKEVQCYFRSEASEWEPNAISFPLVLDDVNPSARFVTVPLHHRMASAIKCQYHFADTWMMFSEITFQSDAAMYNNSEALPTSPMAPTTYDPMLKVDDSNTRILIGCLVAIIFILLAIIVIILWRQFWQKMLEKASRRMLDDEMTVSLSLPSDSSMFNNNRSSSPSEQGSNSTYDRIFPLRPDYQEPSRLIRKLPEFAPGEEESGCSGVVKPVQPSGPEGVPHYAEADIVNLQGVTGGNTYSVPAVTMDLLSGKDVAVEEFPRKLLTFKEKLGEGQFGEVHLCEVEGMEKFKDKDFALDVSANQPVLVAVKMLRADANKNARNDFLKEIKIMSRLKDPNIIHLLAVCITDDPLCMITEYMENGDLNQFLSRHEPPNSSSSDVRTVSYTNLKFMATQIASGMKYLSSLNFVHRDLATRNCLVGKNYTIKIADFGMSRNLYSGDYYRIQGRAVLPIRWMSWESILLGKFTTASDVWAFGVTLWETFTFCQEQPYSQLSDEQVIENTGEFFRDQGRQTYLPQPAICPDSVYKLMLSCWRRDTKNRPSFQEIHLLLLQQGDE
Sequence of MAP2K6 (human) (P52564 whole entry, looked up): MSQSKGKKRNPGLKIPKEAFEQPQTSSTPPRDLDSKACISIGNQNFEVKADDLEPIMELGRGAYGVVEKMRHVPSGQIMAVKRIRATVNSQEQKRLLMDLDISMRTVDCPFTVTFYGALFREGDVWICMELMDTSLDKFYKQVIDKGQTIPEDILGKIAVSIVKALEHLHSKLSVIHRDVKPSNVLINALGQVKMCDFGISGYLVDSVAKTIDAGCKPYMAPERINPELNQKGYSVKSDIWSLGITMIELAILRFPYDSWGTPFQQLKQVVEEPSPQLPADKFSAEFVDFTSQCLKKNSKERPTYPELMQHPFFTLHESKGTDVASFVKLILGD

kinase still bound, per cent of control [1]: 82%
kinase still bound, per cent of control [2]: 100%
kinase still bound, per cent of control [3]: 75%
kinase still bound, per cent of control [4]: 100%
kinase still bound, per cent of control [5]: 29%
kinase still bound, per cent of control [6]: 100%
kinase still bound, per cent of control [7]: 84%
kinase still bound, per cent of control [8]: 78%
kinase still bound, per cent of control [9]: 87%
kinase still bound, per cent of control [10]: 100%
kinase still bound, per cent of control [11]: 62%
kinase still bound, per cent of control [12]: 82%
kinase still bound, per cent of control [13]: 87%
kinase still bound, per cent of control [14]: 91%
kinase still bound, per cent of control [15]: 61%
kinase still bound, per cent of control [16]: 100%
kinase still bound, per cent of control [17]: 79%
kinase still bound, per cent of control [18]: 82%
kinase still bound, per cent of control [19]: 97%
kinase still bound, per cent of control [20]: 93%
kinase still bound, per cent of control [21]: 53%
kinase still bound, per cent of control [22]: 72%
kinase still bound, per cent of control [23]: 58%
kinase still bound, per cent of control [24]: 93%
kinase still bound, per cent of control [25]: 2.4%
kinase still bound, per cent of control [26]: 100%
kinase still bound, per cent of control [27]: 61%
kinase still bound, per cent of control [28]: 97%
kinase still bound, per cent of control [29]: 39%
kinase still bound, per cent of control [30]: 79%
kinase still bound, per cent of control [31]: 63%
kinase still bound, per cent of control [32]: 98%
kinase still bound, per cent of control [33]: 82%
kinase still bound, per cent of control [34]: 50%
kinase still bound, per cent of control [35]: 74%
kinase still bound, per cent of control [36]: 100%
kinase still bound, per cent of control [37]: 86%
kinase still bound, per cent of control [38]: 100%
kinase still bound, per cent of control [39]: 10%
kinase still bound, per cent of control [40]: 100%
kinase still bound, per cent of control [41]: 100%
kinase still bound, per cent of control [42]: 100%
SMILES: COc1cc(N2CCN(C)CC2)ccc1Nc1ncc2c(n1)Nc1ccccc1NC2=O

kinase still bound, per cent of control [1]: 63%
kinase still bound, per cent of control [2]: 100%
kinase still bound, per cent of control [3]: 2.4%
kinase still bound, per cent of control [4]: 100%
kinase still bound, per cent of control [5]: 66%
kinase still bound, per cent of control [6]: 89%
kinase still bound, per cent of control [7]: 70%
kinase still bound, per cent of control [8]: 100%
kinase still bound, per cent of control [9]: 100%
kinase still bound, per cent of control [10]: 68%
kinase still bound, per cent of control [11]: 68%
kinase still bound, per cent of control [12]: 100%
kinase still bound, per cent of control [13]: 96%
kinase still bound, per cent of control [14]: 100%
kinase still bound, per cent of control [15]: 69%
kinase still bound, per cent of control [16]: 100%
kinase still bound, per cent of control [17]: 100%
kinase still bound, per cent of control [18]: 90%
kinase still bound, per cent of control [19]: 100%
kinase still bound, per cent of control [20]: 91%
kinase still bound, per cent of control [21]: 54%
kinase still bound, per cent of control [22]: 100%
kinase still bound, per cent of control [23]: 77%
kinase still bound, per cent of control [24]: 56%
kinase still bound, per cent of control [25]: 86%
kinase still bound, per cent of control [26]: 32%
kinase still bound, per cent of control [27]: 64%
kinase still bound, per cent of control [28]: 84%
kinase still bound, per cent of control [29]: 95%
kinase still bound, per cent of control [30]: 78%
kinase still bound, per cent of control [31]: 100%
kinase still bound, per cent of control [32]: 92%
kinase still bound, per cent of control [33]: 97%
kinase still bound, per cent of control [34]: 24%
kinase still bound, per cent of control [35]: 100%
kinase still bound, per cent of control [36]: 100%
kinase still bound, per cent of control [37]: 91%
kinase still bound, per cent of control [38]: 100%
kinase still bound, per cent of control [39]: 90%
kinase still bound, per cent of control [40]: 94%
kinase still bound, per cent of control [41]: 73%
kinase still bound, per cent of control [42]: 99%
SMILES: O=C1NC(=O)/C(=C/c2c[nH]c(=O)c(-c3ccc(N4CCNCC4)nc3)c2)S1

kinase still bound, per cent of control [1]: 80%
kinase still bound, per cent of control [2]: 100%
kinase still bound, per cent of control [3]: 100%
kinase still bound, per cent of control [4]: 100%
kinase still bound, per cent of control [5]: 45%
kinase still bound, per cent of control [6]: 98%
kinase still bound, per cent of control [7]: 97%
kinase still bound, per cent of control [8]: 76%
kinase still bound, per cent of control [9]: 100%
kinase still bound, per cent of control [10]: 100%
kinase still bound, per cent of control [11]: 88%
kinase still bound, per cent of control [12]: 79%
kinase still bound, per cent of control [13]: 100%
kinase still bound, per cent of control [14]: 84%
kinase still bound, per cent of control [15]: 85%
kinase still bound, per cent of control [16]: 100%
kinase still bound, per cent of control [17]: 82%
kinase still bound, per cent of control [18]: 92%
kinase still bound, per cent of control [19]: 65%
kinase still bound, per cent of control [20]: 100%
kinase still bound, per cent of control [21]: 11%
kinase still bound, per cent of control [22]: 26%
kinase still bound, per cent of control [23]: 85%
kinase still bound, per cent of control [24]: 60%
kinase still bound, per cent of control [25]: 100%
kinase still bound, per cent of control [26]: 100%
kinase still bound, per cent of control [27]: 82%
kinase still bound, per cent of control [28]: 100%
kinase still bound, per cent of control [29]: 61%
kinase still bound, per cent of control [30]: 98%
kinase still bound, per cent of control [31]: 96%
kinase still bound, per cent of control [32]: 100%
kinase still bound, per cent of control [33]: 90%
kinase still bound, per cent of control [34]: 53%
kinase still bound, per cent of control [35]: 100%
kinase still bound, per cent of control [36]: 99%
kinase still bound, per cent of control [37]: 92%
kinase still bound, per cent of control [38]: 96%
kinase still bound, per cent of control [39]: 100%
kinase still bound, per cent of control [40]: 95%
kinase still bound, per cent of control [41]: 75%
kinase still bound, per cent of control [42]: 95%
SMILES: COc1cc(N2CCN(C)CC2)ccc1Nc1ncc2c(n1)N(C)c1ccccc1N(C)C2=O
